Experimental data: PubChem BioAssay (NCI)
Where “and” joins values, the source holds several entries; their conditions need not be identical. Equal entries are not always repeated.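 Test compounds were applied to cells in 96-well plates for 48 hours at 5 doses. Here, GI50 denotes the concentration required for 50% inhibition of growth. TGI is the concentration that stops growth completely.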

What was measured:
Experiment in all cases: inhibition of tumour cell growth, NCI panel, 48 h
NCI-H226 lung = tested on: NCI-H226 lung
IGROV1 ovarian = tested on: IGROV1 ovarian
SF-295 CNS = tested on: SF-295 CNS
U251 CNS = tested on: U251 CNS
MOLT-4 leukemia = tested on: MOLT-4 leukemia
OVCAR-5 ovarian = tested on: OVCAR-5 ovarian
OVCAR-3 ovarian = tested on: OVCAR-3 ovarian
UACC-62 melanoma = tested on: UACC-62 melanoma
HOP-62 NSCLC = tested on: HOP-62 NSCLC
KM12 colon = tested on: KM12 colon

Row | SMILES | TGI (NCI-H226 lung) | TGI (IGROV1 ovarian) | TGI (SF-295 CNS) | TGI (U251 CNS) | TGI (MOLT-4 leukemia) [µM] | TGI (OVCAR-5 ovarian) | TGI (OVCAR-3 ovarian) | TGI (UACC-62 melanoma) [µM] | TGI (HOP-62 NSCLC) | TGI (KM12 colon) | GI50 (KM12 colon) | GI50 (NCI-H226 lung) | GI50 (IGROV1 ovarian) | GI50 (SF-295 CNS) | GI50 (U251 CNS) | GI50 (MOLT-4 leukemia) | GI50 (OVCAR-5 ovarian) | GI50 (OVCAR-3 ovarian) | GI50 (HOP-62 NSCLC) | GI50 (UACC-62 melanoma) [µM]
1 | O=C(N/N=C/c1ccccc1O)N/N=C/c1ccccc1O | > 100 µM | > 100 µM | > 100 µM | > 100 µM | > 100 | > 100 µM | > 100 µM | > 100 | > 100 µM |  |  |  |  |  |  |  |  |  |  | 
2 | CC(=O)c1c(O)c(C)c(O)c(Cc2c(O)c3c(c(C(=O)/C=C/c4ccccc4)c2O)OC(C)(C)C=C3)c1O | 23 µM | 16.3 µM | 11.6 µM | 14.5 µM | 16.8 | 22.4 µM | 15.8 µM | 10 |  | 16.7 µM |  |  |  |  |  |  |  |  |  | 
3 | N=C1C(O)C2(I)c3ccccc3N3C(=N)C(O)C4c5ccccc5N1C4C32 (configuration not stated) |  | > 100 µM | > 100 µM | 43.9 µM | > 100 | > 100 µM | > 100 µM | > 100 | > 100 µM | 34.8 µM |  |  |  |  |  |  |  |  |  | 
4 | Cn1ncc(-c2ccc3c(=O)[nH]nc(CN)c3c2)c1-c1c(F)c(Cl)cc(OC2CC2)c1C#N | 32 µM and 27.4 µM | 30.1 µM and 24.6 µM | 28.4 µM and 27.2 µM | 29.5 µM and 27.5 µM | > 100 | 77 µM and 44.7 µM | 30.6 µM and 26.5 µM |  | 33.7 µM and 27.8 µM | 28.3 µM and 25.6 µM | 13.9 µM and 12.4 µM | 15.7 µM and 13.2 µM | 14.2 µM and 11.6 µM | 14.3 µM and 13.3 µM | 14.9 µM and 13.7 µM | 10.9 µM and 11.7 µM | 20.4 µM and 16.8 µM | 15 µM and 12.6 µM | 16.1 µM and 13.4 µM | 
5 | CN1N=CSC12C(=O)N(c1ccccc1)C(=O)N2c1ccccc1 (configuration not stated) |  | > 100 µM | > 100 µM | > 100 µM | > 100 | > 100 µM | > 100 µM | > 100 | > 100 µM | > 100 µM |  |  |  |  |  |  |  |  |  | 
6 | CCc1c(C#N)c(=O)[nH]c(=O)n1CCN1CCN(C(=O)NCCCCCCNC(=O)N2CCN(CCn3c(CC)c(C#N)c(=O)[nH]c3=O)CC2)CC1 |  | > 100 µM | > 100 µM | > 100 µM | > 100 |  | > 100 µM | > 100 | > 100 µM |  |  |  |  |  |  |  |  |  |  | 
7 | Cc1ccc2cnc(N)c(C#Cc3cc(C(=O)Nc4ccc(CN5CCN(C)CC5)c(C(F)(F)F)c4)cnc3C)c2c1 | 1.74 µM | 0.712 µM | 1.75 µM | 1.87 µM |  | 1.49 µM | 2.66 µM | 1.08 | 2.76 µM | 1.02 µM | 0.005 µM | 0.538 µM | 0.128 µM | 0.771 µM | 0.803 µM |  | 0.688 µM | 0.67 µM | 0.887 µM | 0.234
8 | Oc1cccc(Nc2nc3ccccc3c3occc23)c1 |  |  | 11.7 µM | 27.2 µM |  | 25.3 µM | 12.9 µM | 23.1 | 33.5 µM | 13 µM | 3.24 µM |  |  | 2.34 µM | 14 µM |  | 12.7 µM | 2.09 µM | 15.1 µM | 11.1
9 | Cc1cc2c(C)nn(Cc3ccccc3)c2c(C(=O)O)c1C | > 100 µM | > 100 µM | > 100 µM | > 100 µM | > 100 | > 100 µM | > 100 µM | > 100 | > 100 µM |  |  |  |  |  |  |  |  |  |  | 
10 | COc1cccc(-c2nc3cc(NC(=O)c4ccc(Cl)c(C#N)c4)ccc3o2)c1 | > 100 µM | > 100 µM | > 100 µM |  | > 100 | > 100 µM |  | > 100 | > 100 µM | 4.48 µM | 1.95 µM | 6.49 µM | 7.55 µM | 11.7 µM |  | > 100 µM | 3.05 µM |  | 12.9 µM | 3.29
11 | Cc1c(OC(C)C(=O)O)ccc2c(-c3ccccc3)cc(=O)oc12 (configuration not stated) | > 100 µM | > 100 µM | > 100 µM | > 100 µM | > 100 |  | > 100 µM | > 100 | > 100 µM | > 100 µM |  |  |  |  |  |  |  |  |  | 
12 | Cn1c(=O)c(N=Nc2c(=O)n(C)c(=O)n3c2[nH]c2ccccc23)c2[nH]c3ccccc3n2c1=O | > 100 µM | > 100 µM | > 100 µM | > 100 µM |  | > 100 µM | > 100 µM | > 100 | > 100 µM | > 100 µM |  |  |  |  |  |  |  |  |  | 
13 | COc1cc(Cl)cc(=O)c(O)c1OC | > 87.2 µM |  | > 100 µM | > 100 µM | > 100 | > 100 µM | > 87.2 µM | 70.7 | > 100 µM | > 100 µM |  |  |  |  |  |  |  |  |  | 
14 | O=C1C2C3C=C4c5ccccc5N(c5ccccc5)C4(C2C(=O)N1c1ccccc1)C1C(=O)N(c2ccccc2)C(=O)C31 (configuration not stated) |  |  | > 100 µM | > 100 µM | > 100 | > 100 µM |  |  | > 100 µM | > 100 µM |  |  |  |  |  |  |  |  |  | 
15 | C[N+](C)(C)CCC(=O)CC[N+](C)(C)C |  | > 100 µM | 34.5 µM | > 100 µM | 19.5 |  | 33.9 µM | 41.4 | > 100 µM | 42.2 µM |  |  |  |  |  |  |  |  |  | 
16 | CNC(=S)Nc1ccc(OC)c2ccccc12 |  | > 10 µM | 5.77 µM | > 10 µM | > 10 | > 10 µM | 6.72 µM | > 10 | > 10 µM | > 10 µM |  |  |  |  |  |  |  |  |  | 
17 | CCOC(=O)Cc1nc2ccc3c(c2[nH]c1=O)C(=O)c1ccccc1C3=O | > 100 µM | > 100 µM |  | > 100 µM | 54.2 | > 100 µM | > 100 µM | > 100 | > 100 µM | > 100 µM |  |  |  |  |  |  |  |  |  | 
18 | Cc1nc(C(N)=O)c(N)n1CCN1CCN(C(=O)CCCCCCCCCCNC2N=CNc3nc[nH]c32)CC1 (configuration not stated) |  | > 100 µM | > 100 µM | > 100 µM | 47.6 | > 100 µM | > 100 µM | > 100 | > 100 µM | > 100 µM |  |  |  |  |  |  |  |  |  | 
19 | Cc1c(/C=N/NC(=O)c2ccccc2O)c(=O)n(-c2ccccc2)n1C | > 100 µM | > 100 µM | > 100 µM | > 100 µM | > 100 |  | > 100 µM | > 100 | > 100 µM | > 100 µM |  |  |  |  |  |  |  |  |  | 
20 | COc1ccc2nccc(C3=CCC4CCN(C(=O)c5ccccc5)C3C4)c2c1 (configuration not stated) |  | > 100 µM | > 100 µM | > 100 µM | > 100 |  | > 100 µM | > 100 | > 100 µM | > 100 µM |  |  |  |  |  |  |  |  |  | 
21 | C1CSCCCSCCCSCCCSCCCSCCCSCCCSCCCSC1 | > 100 µM | > 100 µM | > 100 µM | > 100 µM | > 100 | > 100 µM | > 100 µM |  | > 100 µM | > 100 µM |  |  |  |  |  |  |  |  |  | 
